Where a chain is given by its changes, count along the chain named. “And” between values parts separate entries of the source, which are not always exact repeats. Equal entries are not always repeated.

Holding throughout (assay type): in vitro ADME
The target in one data set is T1, UGT1A7*3 (Homo sapiens, UniProt Q9HAW7, N129K/R131K/W208R).
T1 construct: expressed in transfected cells
T1 sequence (Q9HAW7 26-530 N129K/R131K/W208R): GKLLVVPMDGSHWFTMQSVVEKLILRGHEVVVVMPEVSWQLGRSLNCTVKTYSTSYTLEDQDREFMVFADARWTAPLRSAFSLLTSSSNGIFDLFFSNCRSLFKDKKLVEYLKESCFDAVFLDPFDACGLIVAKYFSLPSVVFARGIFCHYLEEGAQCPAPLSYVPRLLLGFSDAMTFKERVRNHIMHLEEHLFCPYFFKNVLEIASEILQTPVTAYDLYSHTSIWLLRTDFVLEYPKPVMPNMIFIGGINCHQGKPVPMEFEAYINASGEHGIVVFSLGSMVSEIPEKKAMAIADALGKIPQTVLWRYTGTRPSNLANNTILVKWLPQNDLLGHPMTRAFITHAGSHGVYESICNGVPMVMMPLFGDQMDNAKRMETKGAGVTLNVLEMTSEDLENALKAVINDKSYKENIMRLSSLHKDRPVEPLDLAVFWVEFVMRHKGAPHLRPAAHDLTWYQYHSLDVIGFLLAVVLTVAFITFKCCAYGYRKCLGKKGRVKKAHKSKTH
Kind of data set: SN-38 glucuronidation by microsomes of HEK293 cells expressing UGT1A7*3. More on the design: key to Function (SN-38G formation versus *1 allele): High: no significant difference in activity compared to *1 allele.; Low: significantly lower SN-38G formation versus *1 allele. Here is the method: (§1) Western blot analyses of UGT1A7 and UGT1A9 variants expressed in HEK293 cells were performed on microsomal proteins (10 μg) separated on a 10% SDS-polyacrylamide gel. After transferring the proteins, the membranes were probed with an anti-UGT1A RC-71 polyclonal antibody and with an anti-calnexin antibody. The relative levels of UGT1A9 (a) and UGT1A7 proteins (b) were determined by semi-quantitative densitometric analysis of the Enhanced chemiluminescence (ECL) image. The in vitro SN-38 activity was assessed using microsomal fractions prepared from HEK293 cells expressing the *1 and variant UGT1A9 (c) and UGT1A7 (d) alleles and incubated with 5 μM of SN-38 as described in Materials and Methods.
(§2) For the determination of Vmax and Km.

A further data set concerns human liver microsomes. Kind of data set: SN-38 glucuronide formation by human liver microsome samples of patients. The note with it: N 48. From the text: To obtain statistical data on interindividual variation of SN-38 glucuronidation, we measured the SN-38-G formation, as currently known in the background art, with microsomes preparations from each patient liver sample. The glucuronide formation rates were regrouped into ranges and every sample was categorized within these ranges.
For orientation: Microsomes from liver hold many membrane-bound enzymes, among them those of drug oxidation.

Another data set addresses T2, UGT1A7*5 (Homo sapiens, UniProt Q9HAW7, G115S).
T2 construct: expressed in transfected cells
T2 sequence (Q9HAW7 26-530 G115S): T1 sequence (Q9HAW7 26-530 N129K/R131K/W208R) with G90S, K104N, K106R, R183W
Kind of data set: SN-38 glucuronidation by microsomes of HEK293 cells expressing UGT1A7*5. More on the design: key to Function (SN-38G formation versus *1 allele): High: no significant difference in activity compared to *1 allele.; Low: significantly lower SN-38G formation versus *1 allele. Here is the method:
as §1, §2

For a further data set, the target named is T3, UGT1A7*9 (Homo sapiens, UniProt Q9HAW7, G115S/N129K/R131K).
T3 construct: expressed in transfected cells
T3 sequence (Q9HAW7 26-530 G115S/N129K/R131K): T1 sequence (Q9HAW7 26-530 N129K/R131K/W208R) with G90S, R183W
Kind of data set: SN-38 glucuronidation by microsomes of HEK293 cells expressing UGT1A7*9. More on the design: key to Function (SN-38G formation versus *1 allele): High: no significant difference in activity compared to *1 allele.; Low: significantly lower SN-38G formation versus *1 allele. Here is the method: as §1, §2

For the compound `CCc1c2c(nc3ccc(O)cc13)-c1cc3c(c(=O)n1C2)COC(=O)[C@]3(O)CC` [SN-38, 7-ethyl-10-hydroxycamptothecin], the “SN-38 glucuronidating activity of the allele (in words)” value (“SN-38 glucuronidating activity” below) at UGT1A7*3 is given as “low”. On UGT1A7*3 (in vitro experiments), the “Function (SN-38G formation versus *1 allele)” value is “Low”. Further, in the data set on human liver microsomes, the “SN-38 glucuronide formation, glucuronidation rate, Mean” value is 0.61 pmol/mg of protein/minute and 0.6118 pmol/mg of protein/minute; the “SN-38 glucuronide formation, quantile 0.0% minimum” value is on record as 0.1063 pmol/mg of protein/minute; the “SN-38 glucuronide formation, quantile 0.5%” value is given as 0.1063 pmol/mg of protein/minute; the “SN-38 glucuronide formation, quantile 2.5%” value is listed as 0.1113 pmol/mg of protein/minute. Besides, in the data set on human liver microsomes, the “SN-38 glucuronide formation, quantile 10.0%” value is 0.1641 pmol/mg of protein/minute; the “SN-38 glucuronide formation, quantile 25.0% quartile” value is 0.2763 pmol/mg of protein/minute; the “SN-38 glucuronide formation, quantile 50.0% median” value is given as 0.4204 pmol/mg of protein/minute; the “SN-38 glucuronide formation, quantile 75.0% quartile” value was 0.9279 pmol/mg of protein/minute. Also, in the data set on human liver microsomes, the “SN-38 glucuronide formation, quantile 90.0%” value is listed as 1.5699 pmol/mg of protein/minute; the “SN-38 glucuronide formation, quantile 97.5%” value is recorded as 1.9309 pmol/mg of protein/minute; the “SN-38 glucuronide formation, quantile 99.5%” value is reported as 1.9735 pmol/mg of protein/minute; the “SN-38 glucuronide formation, quantile 100.0% maximum” value is 1.9735 pmol/mg of protein/minute. Further, the “SN-38 glucuronidating activity” value at UGT1A7*5 was “low”. Also, on UGT1A7*5 (in vitro experiments), the “Function (SN-38G formation versus *1 allele)” value is “Low”. Besides, the “lower rates of SN-38G formation compared to UGT1A7*1” value at UGT1A7*5 (range given for *5, *7 and *8 together) is 38-76%. Further, at UGT1A7*9, the “SN-38 glucuronidating activity” value was “highest and low”. Besides, the “Function (SN-38G formation versus *1 allele)” value on UGT1A7*9 (in vitro experiments) is reported as “Low”.

For the origin of these results see patent publication US20060183119A1, “Method for determining predisposition to a physiological reaction in a patient” (UNIVERSITE LAVAL, priority 2002, published 2006).
